In patent US20210170033A1, “NOVEL CONJUGATES OF A PHARMACEUTICAL AGENT AND A MOIETY CAPABLE OF BINDING TO A GLUCOSE SENSING PROTEIN” (SANOFI, priority 2017, published 2021) one finds IC50 data, which are given here for 31 compounds.

Broadly, the IC50 is the concentration needed to halve the response being measured.

The subject of one assay is A2780 cells. In words: Deoxy-glucose uptake assay in A2780 cells (14C 2-deoxy-D-glucose transport). It is filed as cell-based. Particulars: Homo sapiens, 20 min; inhibition of 14C 2-deoxy-D-glucose transport into A2780 cells; 20 min compound incubation; read-out: IC50. In short, it runs like this:
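Radiolabelled 2-deoxy-D-glucose transport over 20 min was scintillation-counted in A2780 cells, grown 48 h, after 20 min compound exposure in KRB. Untreated cells gave the 100% reference, with Cytochalasin B defining background. IC50 values were regressed from triplicate means across 7 or 14 concentrations.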

The test system of assay [1] is A2780 Human Carcinoma Cells. Kind of assay: Glucose displacement assay (ATP measurement, CellTiter-Glo). Particulars: ATP measurement in A2780 cells, 0.5 μM rotenone. It is filed as cell-based. On the procedure: 2. Glucose Displacement Assay (ATP Measurement)
30,000 A2780 Human Carcinoma Cells are seeded per well in a Greiner 96-well plate. Cells are expanded and cultured in RPMI 1640 medium+GlutaMAX® with 10% FCS and 11 mM glucose, at 37° C. with 5% CO2. After 44 h, culture media is changed and washed once with PBS to starvation media consisting of RPMI 1640 medium with 1% FCS without glucose for 2 hours. Cells are then washed with KRB buffer, followed by incubation for 20 min at 37° C. of the treatment mix consisting of 60 μL KRB buffer/well and 10 μL of compound or DMSO 10×. 10 μl of rotenone is added to the mix to a final concentration of 0.5 μM. Cell plates are left for 2 min at room temperature. 20 μL of different glucose concentrations are added to the mix—typically 0.1 to 10 mM range—.
Cells are incubated for another 15 min at 37° C., before measuring ATP with the CellTiter-Glo® Assay, under manufacturer's guidance, but without the equilibration step at room temperature for 30 min. In brief, 100 μl of Cell-Titer-Glo® Reagent is added to the wells containing already 100 μl of the previous reaction mix. Plates are mixed for 2 min at 800 rpm, followed by incubation at room temperature for 10 min to stabilize the luminescent signal. Luminescence is then recorded with the Tekan Ultra Evolution reader.

Setting [2] is: 1 mM glucose, read-out: IC50 [μM] at 1 mM glucose.
Where [3] appears, read: 10 mM glucose, read-out: IC50 [μM] at 10 mM glucose.

Like-named read-outs stand apart in the source and are kept apart here.

Consider `COc1cc(C(=O)OC[C@H]2O[C@H](OC)[C@H](O)[C@@H](O)[C@@H]2O)cc(Cl)c1OCc1cccc(NC(=O)OC(C)(C)C)c1` [Example 20], for which the IC50 with A2780 cells worked out at 28.7 µM; in assay [1] (setting [2]), 12.7 µM; in assay [1] (setting [3]) it was 33.9 µM.

Turning to `CO[C@H]1O[C@H](CO)[C@@H](O)[C@H](O)[C@H]1OC(=O)c1cc(Cl)c(OCc2nc3ccccc3n2Cc2ccccc2Cl)c(Cl)c1` [Example 116], the figures for the IC50 (in the assay on A2780 cells; in assay [1] (setting [2]); in assay [1] (setting [3])) were 2.2 µM, 16.7 µM and 104 µM, respectively.

On to `C#CCCCn1c(COc2c(Cl)cc(C(=O)N[C@H]3[C@@H](OC)O[C@H](CO)[C@@H](O)[C@@H]3O)c(C)c2Cl)nc2ccccc21` [Example 201], for which the 50% inhibitory concentration (IC50) in the assay on A2780 cells worked out at 4.5 µM; in assay [1] (setting [2]), 0.393 µM; in assay [1] (setting [3]), 2.4 µM.

On to `C#CCCC(=O)Nc1cccc(COc2c(Cl)cc(C(=O)O[C@H]3[C@@H](OC)O[C@H](CO)[C@@H](O)[C@@H]3O)c(C)c2Cl)c1` [Example 206], for which the IC50 with A2780 cells is 8.4 µM; in assay [1] (setting [2]), 1.7 µM; in assay [1] (setting [3]), greater than 10 µM.

Consider `C#CCCCn1cnc(COc2c(Cl)cc(C(=O)O[C@H]3[C@@H](OC)O[C@H](CO)[C@@H](O)[C@@H]3O)cc2OC)c1` [Example 208], for which the IC50 is 12.7 µM in the assay with A2780 cells, 21.4 µM in assay [1] (setting [2]) and greater than 100 µM in assay [1] (setting [3]).

With `COc1cc(OCc2ccccc2)c(Cl)cc1C(=O)N[C@H]1[C@@H](OC)O[C@H](CO)[C@@H](O)[C@@H]1O` [Example 232], the IC50 in the assay with A2780 cells is 7.3 µM; in assay [1] (setting [2]) it was 5.6 µM; in assay [1] (setting [3]), greater than 33 µM.

For the compound `COc1cc(OCc2ccccc2)c(Cl)cc1C(=O)O[C@H]1[C@@H](OC)O[C@H](CO)[C@@H](O)[C@@H]1O` [Example 233], the IC50 with A2780 cells turned out to be 1.1 µM; in assay [1] (setting [2]), 1.67 µM; in assay [1] (setting [3]) it was 21.1 µM.

For `C#CCCCn1c(COc2c(Cl)cc(C(=O)O[C@H]3[C@@H](OC)O[C@H](CO)[C@@H](O)[C@@H]3O)c(C)c2Cl)nc2ccc(OC)cc21` [Example 291], the IC50 stood at 0.1 µM in the assay with A2780 cells, 0.12 µM in assay [1] (setting [2]) and 0.29 µM in assay [1] (setting [3]).

Regarding `C#CCCCn1c(COc2c(Cl)cc(C(=O)O[C@H]3[C@@H](OC)O[C@H](CO)[C@@H](O)[C@@H]3O)c(C)c2Cl)nc2cc(OC)ccc21` [Example 292], the IC50 in the assay on A2780 cells worked out at 0.1 µM; in assay [1] (setting [2]) it was 0.13 µM; in assay [1] (setting [3]) it was 1.12 µM.

For the compound `C#CCCCn1c(COc2cc(OC)c(C(=O)O[C@H]3[C@@H](OC)O[C@H](CO)[C@@H](O)[C@@H]3O)cc2Cl)nc2ccccc21` [Example 294], the IC50 in the assay on A2780 cells is 0.1 µM; in assay [1] (setting [2]) it was 0.16 µM; in assay [1] (setting [3]), 1.28 µM.

As for `COC(=O)[C@@H](N)CCC(=O)NCc1cccc(COc2c(Cl)cc(C(=O)O[C@H]3[C@@H](OC)O[C@H](CO)[C@@H](O)[C@@H]3O)c(C)c2Cl)c1` [Example 308], the results for the IC50 (in the assay with A2780 cells; in assay [1] (setting [2]); in assay [1] (setting [3])) were 35.8 µM, 8.85 µM and greater than 33 µM, respectively.

For the compound `CCOC(=O)CCCCCn1cc(CCCn2c(COc3c(Cl)cc(C(=O)O[C@H]4[C@@H](OC)O[C@H](CO)[C@@H](O)[C@@H]4O)c(C)c3Cl)nc3ccccc32)nn1` [Example 309], the figures for the IC50 (in the assay with A2780 cells; in assay [1] (setting [2]); in assay [1] (setting [3])) were 0.3 µM, 0.17 µM and 0.71 µM, respectively.

Turning to `CCOC(=O)CCCn1cc(CCCn2c(COc3c(Cl)cc(C(=O)O[C@H]4[C@@H](OC)O[C@H](CO)[C@@H](O)[C@@H]4O)c(C)c3Cl)nc3ccccc32)nn1` [Example 310], the IC50 with A2780 cells came to 0.4 µM; in assay [1] (setting [2]) it was 0.17 µM; in assay [1] (setting [3]) it was 0.89 µM.

In the case of `CO[C@H]1O[C@H](CO)[C@@H](O)[C@H](O)[C@H]1OC(=O)c1cc(Cl)c(OCc2nc3ccccc3n2CCCc2cn(CCOCCOCC(=O)OC(C)(C)C)nn2)c(Cl)c1C` [Example 311], the IC50 was found to be 0.4 µM with A2780 cells, 0.12 µM in assay [1] (setting [2]) and 0.7 µM in assay [1] (setting [3]).

With `COc1cc(C(=O)O[C@H]2[C@@H](OC)O[C@H](CO)[C@@H](O)[C@@H]2O)cc(Cl)c1OCc1cccc(NC(=O)CCc2cc(C)nn2C)c1` [Example 313], the IC50 in assay [1] (setting [2]) turned out to be 3.2 µM; in assay [1] (setting [3]) it was 18.8 µM.

With `C#CCCCn1c(COc2cc(Cl)cc(C(=O)O[C@H]3[C@@H](OC)O[C@H](CO)[C@@H](O)[C@@H]3O)c2)nc2ccccc21` [Example 314], the 50% inhibitory concentration (IC50) in the assay on A2780 cells came to 9.7 µM; in assay [1] (setting [2]), 2.81 µM; in assay [1] (setting [3]), 28.5 µM.

Turning to `COC(=O)/C=C/c1ccc(COc2c(Cl)cc(C(=O)N[C@H]3[C@@H](OC)O[C@H](CO)[C@@H](O)[C@@H]3O)c(C)c2Cl)cc1` [Example 315], the half-inhibitory concentration (IC50) with A2780 cells is 12.9 µM; in assay [1] (setting [2]), 2.3 µM; in assay [1] (setting [3]), greater than 33 µM.

`CO[C@H]1O[C@H](CO)[C@@H](O)[C@H](O)[C@H]1NC(=O)c1cc(Cl)c(OCc2ccc(OCC(=O)OC(C)(C)C)cc2)c(Cl)c1C` [Example 316]: the IC50 with A2780 cells was 1.6 µM; in assay [1] (setting [2]) it was 1.52 µM; in assay [1] (setting [3]), greater than 33 µM.

As for `CO[C@H]1O[C@H](CO)[C@@H](O)[C@H](O)[C@H]1OC(=O)c1cc(Cl)c(OCc2ccc(OCC(=O)OC(C)(C)C)cc2)c(Cl)c1C` [Example 319], the IC50 with A2780 cells was 7.4 µM; in assay [1] (setting [2]), 3 µM; in assay [1] (setting [3]) it was 8.03 µM.

Regarding `C#CCCCCCCn1c(COc2c(Cl)cc(C(=O)O[C@H]3[C@@H](OC)O[C@H](CO)[C@@H](O)[C@@H]3O)c(C)c2Cl)nc2ccccc21` [Example 321], the IC50 was 0.2 µM in the assay with A2780 cells, 0.56 µM in assay [1] (setting [2]) and 1.2 µM in assay [1] (setting [3]).

As for `COC(=O)[C@H](CCCCNC(=O)CCCCCn1c(COc2c(Cl)cc(C(=O)N[C@H]3[C@@H](OC)O[C@H](CO)[C@@H](O)[C@@H]3O)c(C)c2Cl)nc2ccccc21)NC(=O)OC(C)(C)C` [Example 322], the IC50 was found to be 20 µM in the assay with A2780 cells, 1.42 µM in assay [1] (setting [2]) and 7.06 µM in assay [1] (setting [3]).

On to `CO[C@H]1O[C@H](CO)[C@@H](O)[C@H](O)[C@H]1NC(=O)c1cc(Cl)c(OCc2noc3ccc(C)cc23)c(Cl)c1C` [Example 324], for which the IC50 in the assay with A2780 cells is 2.1 µM; in assay [1] (setting [2]) it was 0.94 µM; in assay [1] (setting [3]), 7.98 µM.

In the case of `CO[C@H]1O[C@H](CO)[C@@H](O)[C@H](O)[C@H]1OC(=O)c1cc(Cl)c(OCc2noc3ccc(C)cc23)c(Cl)c1C` [Example 325], the IC50 with A2780 cells was determined as 0.3 µM; in assay [1] (setting [2]), 1.2 µM; in assay [1] (setting [3]) it was 7.19 µM.

With `C#CCCCn1c(COc2cc(C(=O)O[C@H]3[C@@H](OC)O[C@H](CO)[C@@H](O)[C@@H]3O)cc3c2cnn3C)nc2ccccc21` [Example 327], the IC50 is 9.4 µM in the assay with A2780 cells, 4.99 µM in assay [1] (setting [2]) and greater than 33 µM in assay [1] (setting [3]).

`C#CCCCn1c(COc2c(Cl)cc(C(=O)O[C@H]3[C@@H](OC)O[C@H](CO)[C@@H](O)[C@@H]3O)c(C)c2Cl)nc2ccc(C)cc21` [Example 329]: the IC50 in the assay with A2780 cells worked out at 0.01 µM; in assay [1] (setting [2]), 0.2 µM; in assay [1] (setting [3]) it was 0.94 µM.

As to `C#CCCCn1c(COc2c(Cl)cc(C(=O)O[C@H]3[C@@H](OC)O[C@H](CO)[C@@H](O)[C@@H]3O)c(C)c2Cl)nc2cc(C)ccc21` [Example 330], the IC50 in the assay on A2780 cells was 0.3 µM; in assay [1] (setting [2]) it was 0.92 µM; in assay [1] (setting [3]) it was 3.52 µM.

For the compound `C#CCCC(=O)Nc1cc(COc2c(Cl)cc(C(=O)O[C@H]3[C@@H](OC)O[C@H](CO)[C@@H](O)[C@@H]3O)c(C)c2Cl)ccc1OC` [Example 331], the IC50 with A2780 cells was 1.1 µM; in assay [1] (setting [2]) it was 0.36 µM; in assay [1] (setting [3]), 1.79 µM.

For the compound `CO[C@H]1O[C@H](CO)[C@@H](O)[C@H](O)[C@H]1NC(=O)c1cc(Cl)c(OCc2nc3ccccc3n2CCCCCCNC(=O)[C@H](CC(C)C)N(C)C(=O)OC(C)(C)C)c(Cl)c1C` [Example 341], the IC50 came out at 1.6 µM in the assay on A2780 cells, 0.72 µM in assay [1] (setting [2]) and 2.61 µM in assay [1] (setting [3]).

Take `COC(=O)[C@H](CCC(=O)NCCCCCCn1c(COc2c(Cl)cc(C(=O)N[C@H]3[C@@H](OC)O[C@H](CO)[C@@H](O)[C@@H]3O)c(C)c2Cl)nc2ccccc21)NC(=O)OC(C)(C)C` [Example 342]: the IC50 with A2780 cells is 34.2 µM; in assay [1] (setting [2]), 2.18 µM; in assay [1] (setting [3]), greater than 100 µM.

`CO[C@H]1O[C@H](CO)[C@@H](O)[C@H](O)[C@H]1OC(=O)c1cc(Cl)c(OCc2cccc(CNC(=O)CCC(=O)OC(C)(C)C)c2)c(Cl)c1C` [Example 344]: the IC50 with A2780 cells is 1 µM; in assay [1] (setting [2]), 1.11 µM; in assay [1] (setting [3]), 8.59 µM.

For the compound `CO[C@H]1O[C@H](CO)[C@@H](O)[C@H](O)[C@H]1OC(=O)c1cc(Cl)c(OCc2cccc(NCCCC(=O)OC(C)(C)C)c2)c(Cl)c1C` [Example 345], the IC50 in the assay with A2780 cells worked out at 12.4 µM; in assay [1] (setting [2]), 2.41 µM; in assay [1] (setting [3]) it was 6.59 µM.
